The record followed here is patent US20190183100A1, “ANIMAL MODELS FOR POLYCYSTIC KIDNEY DISEASE” (Recombinetics, Inc., priority 2017, published 2019).

One series deals with PKD1^FLEX-CreER2. As to the kind of experiment: Tamoxifen activation of PKD1^FLEX-CreER2 cassette in LLC-PK1 cells in vitro. Type of series: cell-based, pig. The note with it: after tamoxifen treatment, LLC-PK1 targeted cells, expected.
Series [1] deals with porcine PKHD1. As to the kind of experiment: Surveyor assay (cutting) and RFLP analysis (HDR) in transfected pig fibroblasts. Type of series: cell-based. The note with it: for activity among the TALENs and CRISPR gRNAs tested for the target: comparison of reagents developed for the same target; for cutting, In Fibroblast Cells Incubated at 30° / RFLP, In Fibroblast Cells Incubated at 30° / cutting, In Fibroblast Cells Incubated at 37° / RFLP, In Fibroblast Cells Incubated at 37°: pig fibroblasts; for cutting, In Fibroblast Cells Incubated at 30° / RFLP, In Fibroblast Cells Incubated at 30°: 30 degrees C; for cutting, In Fibroblast Cells Incubated at 30° / cutting, In Fibroblast Cells Incubated at 37°: three days recovery, Surveyor assay; for RFLP, In Fibroblast Cells Incubated at 30° / RFLP, In Fibroblast Cells Incubated at 37°: with HDR template, RFLP assay; for cutting, In Fibroblast Cells Incubated at 37° / RFLP, In Fibroblast Cells Incubated at 37°: 37 degrees C. An excerpt:
FIG. 12A, FIG. 12B: T36M introgression in cells. […] The region is highly conserved and threonine acid at position 36 in humans corresponds to residue 36 in pigs. Threonine acid 36 is identified in pig genomic DNA sequence, and […] (maroon arrow) are designed to cleave near T36. FIG. 12A also discloses SEQ ID NO: 118. […] It should be noted that position 3553 in pigs is a Valine residue and not pathogenic; henceforth this mutation will be referred to as either I3553T or V3553T. The cells were recovered for three days at 30 and 37 degrees C. prior to quantification of activity by the Surveyor assay and RFLP analysis with the Nsp1 restriction enzyme. The arrowheads depict the expected size of cleavage products for the Surveyor assay or RFLP assay.
A number of quality sites for TALENs and CRISPRs are ideally positioned for HDR mediated introgression the T36M mutation (Table 7, Table 8, Table 9). The assembled reagents are tested in pig fetal fibroblasts and embryos using standard operating procedures (SOPs) (FIG. 9B). Using these methods, hundreds of loci in pig and cattle have been successfully targeted, with efficiencies ranging from 5-75% in cultured cells.
For introgression of T36M into the porcine genome, two CRISPR Cas9 gRNAs and TALENs were tested in pig fibroblasts and embryos to optimize conditions (FIG. 12A, FIG. 12B, Table 7, Table 8, Table 9).

Series [2] concerns porcine PKHD1. The experiment in a line: Cytoplasmic injection of parthenogenetic pig embryos, single blastocyst RFLP assay and sequencing. Type of series: cell-based. The note with it: for RFLP In Embryos: pig embryos, with HDR template; for NHEJ n (%): R3229Q introgression. On the procedure: The best performing combinations of TALENs and CRISPRs identified above, are evaluated in vitro by injection of in vitro matured (IVM) parthenogenetic pig embryos (FIG. 9C). […] In a small pilot study targeting porcine PDX1, 80% of alleles injected with a TALEN dosage of 40 ng/μl were able to be mutated, with nearly half of those directed to a particular edit by a homology template (FIG. 11B). FIG. 11A illustrates the steps required in production of in vitro matured pig embryos for microinjection. FIG. 11B illustrates the difference in percent success which using different concentrations of editing reagents for the PDX1 gene. A similar dosage escalation study is used to optimize for T36M introgression that balances survival of embryos in vitro with editing efficiency.
HDR efficiency was inversely associated with Cas9 dosage (50 vs 80% HDR) from highest to lowest concentration (Table 12 and FIG. 13A) likely a result of hyperactive cutting in the high concentration group. The fidelity of HDR events was further confirmed by sequencing (FIG. 13B) which confirms that the wild type triplet “ACA” coding, for threonine has been converted to “ATG” coding for methionine (FIG. 9A) using the template HDR sequence. Overall, condition C3, 25 ng/ul of Cas9, 12.5 ng/ul of gRNA and 50 ng/μl of ssHDR, was optimal for both blastocyst formation rate and HDR activity. If this site proves problematic, alternative missense mutations commonly observed in more than one family of ARPKD patients, such as I3553T, I222V, P805L or R3229Q are introgressed.
By the same process as Example 8, R3229Q was engineered into the PKHD1 gene. R3229Q is the equivalent mutation to R3240Q in humans (FIG. 16A), which in a homozygous state causes moderate ARPKD. Also, as noted previously, the annotation of PKHD1 has changed since initial contigs placed R3240Q in exon 58 versus exon 65. Also, R3240Q in humans, maps to different residue numbers in pigs based on transcript selected. […] Injections into parthenogenetic embryos were performed as before, with two conditions using a ssODN as the homology template ssPKHD1 65.1 3240 R to Q (Table 10); C1 (100/50/50) (Cas9 mRNA/gRNA65.1/homology template, all ng/μl) and C3 (25/12.5/50) (Cas9 mRNA/gRNA65.1/homology template, all ng/μl) (Table 9). […] HDR was also prevalent in the C3 condition (75%) whereas total mutation rate (indels+HDR alleles) was 100 and 95% for C1 and C3 respectively. […] Blastocyst 3.19 is homozygous for R3229Q while 3.12 has one HDR allele and one indel allele.

Series [3] relates to porcine PKHD1. The experiment in a line: Injection of in vivo produced porcine embryos, genotype of born piglets. The arrangement: species or system pig. The note with it: 22 piglets, litters 115 and 116, condition C3. As for the experimental part:
Founder animals for ARPKD were produced using the process of Example 8 with minor changes. The T36M reagents (ssPKHD1 CRISPR 3.1 and template ssPKHD1 3.1 36 T to M) were injected into in vivo produced porcine embryos at the 1 or 2 cell stage. Condition C3 was used for injection and the 60 resulting embryos were split equally between to synchronized recipients. A total of 22 piglets were born, 14 from one surrogate (litter ID 115) and 8 from the other (litter ID 116). Newborn piglets were visually assessed for fitness and four, 115-1, 115-2, 115-3 and 115-8 were reluctant to suckle from their mothers and had visible abdominal distension (Table 14). […] Each of the remaining piglets was analyzed for a visible phenotype at 20 days of age (Table 14). Genotype of the piglet was a strong indicator of disease severity as 115-1, 115-2, 115-3 and 115-8 are predicted to have null mutations on each allele while mild cases had some combination of T36M mutation or single allele mutations (Table 14). Overall, ˜55% of offspring were mutant with 5 showing T36M mutations (Table 15). This rate is lower than observed above. A key difference is the embryos source. Parthenogenetic embryos were used in previous experiments where timing of activation is tightly controlled. In contrast, this experiment used in vivo produced embryos (bred sows, embryos collected ˜18 hours post fertilization) where timing is variable. However, the hypothesis that a variety of disease alleles and severities could be produced in a single litter was confirmed.

The mark [4] stands for this setting: C1 (100/50/50) ng/μl Cas9/gRNA/ssODN, T36M template.
Setting [5] is: C2 (50/25/50) ng/μl Cas9/gRNA/ssODN, T36M template.
Where [6] appears, read: C3 (25/12.5/50) ng/μl Cas9/gRNA/ssODN, T36M template.

Protocol for PKD1^FLEX-CreER2: Testing of PKD1^FLEX-CreER2 is conducted using the immortalized pig kidney cell line, LLC-PK1. Prior to conducting studies with the cassette integrated into cells, the efficacy of Cre recombination is optimized in transient transfections +/− tamoxifen and measure recombination by qPCR.
In vitro testing in the LLC-PK1, PKD1^FLEX-CreER2 targeted cells: The model cells developed above are treated in triplicate with 3 dosages of tamoxifen, and compared to non-treated cells. Percent recombination of the PKD1^FLEX-CreER2 cassette is analyzed visually for the loss of EGFP using FACS and molecularly by quantitative PCR for molecular quantification of recombination. Splicing of the PKD1^FLEX-CreER2 cassette is analyzed before and after recombination by RT-PCR from exon 14 to exon 16, followed by Sanger sequencing and qRT-PCR using primers spanning exon junctions of E14-15 and E15-16 respectively. Finally, induced and non-induced populations are compared at the protein level by western blotting.

Regarding `CC/C(=C(\c1ccccc1)c1ccc(OCCN(C)C)cc1)c1ccccc1` [tamoxifen], in the series with PKD1^FLEX-CreER2, the “activation of the integrated PKD1^FLEX-CreER2 cassette” value was greater than 80%.

As to “ssPKHD1 CRISPR 3.1: CRISPR guide RNA (SEQ ID NO: 103) targeting exon 3 of porcine PKHD1, used with Cas9 mRNA and T36M HDR template (guide GGATTACCGTGTTCTTCGATGG; chemistry not given here)”, in the series on porcine PKHD1 [1], the “activity among the TALENs and CRISPR gRNAs tested for the target” value is recorded as “greatest activity in cells”; the “cutting, In Fibroblast Cells Incubated at 30°” value (shortened to “cutting … at 30°”) came out at 0% cutting; the “RFLP, In Fibroblast Cells Incubated at 30°” value (“RFLP … at 30°” below) was “RFLP detected, too”; the “cutting, In Fibroblast Cells Incubated at 37°” value (shortened to “cutting … at 37°”) worked out at 30.8% cutting. Besides, the “RFLP, In Fibroblast Cells Incubated at 37°” value (“RFLP … at 37°” below) with porcine PKHD1 [1] is listed as “RFLP 44.7%”. The “RFLP … at 37°” value in the series with porcine PKHD1 [1] (listed as CRISPR 3.1) is on record as “up to 44.7%”. Further, in the series on porcine PKHD1 [2] (setting [4]), the “Mutated n (%)” value is recorded as 17 (94.4%) and the “NHEJ^− n (%)” value is 7 (38.8%). Further, in the series on porcine PKHD1 [2] (setting [5]), the “HDR^+ n (%)” value is 11 (55.0%), the “Mutated n (%)” value was 19 (95.0%) and the “NHEJ^− n (%)” value is listed as 8 (40.0%). In addition, in the series with porcine PKHD1 [2] (setting [6]), the “Mutated n (%)” value was 19 (95.0%) and the “NHEJ^− n (%)” value is given as 3 (15.0%). Moreover, the embryos mutated result in the series with porcine PKHD1 [2] (CRISPR/Cas9 dosage of 25-100 ng/μl) is recorded as “Up to 95%”. In the series with porcine PKHD1 [2] (cytoplasmic injection with HDR oligo at C1, C2, C3, highest in C3), the “blastocyst formation rate (toxicity by embryo development analysis)” value is on record as “high in each group”. Besides, the “RFLP In Embryos” value in the series with porcine PKHD1 [2] was determined as 80% RFLP. In the series with porcine PKHD1 [3], the “Heterozygous T36M % (number)” value is 9% (2/22), the “Homozygous T36M % (number)” value was 13.6% (3/22) and the “Wild type % (number)” value is on record as 45.5% (10/22).

As for “ssPKHD1 CRISPR 3.2: CRISPR guide RNA (SEQ ID NO: 104) targeting exon 3 of porcine PKHD1 (guide GCAGCCTCGCAGGGGGAACATGG; chemistry not given here)”, in the series with porcine PKHD1 [1], the “cutting … at 30°” value worked out at 0% cutting at 30; the “RFLP … at 30°” value was “RFLP detected, too”; the “cutting … at 37°” value came to 0% cutting at 37; the “RFLP … at 37°” value is on record as “RFLP detected, too”. The “RFLP In Embryos” value in the series on porcine PKHD1 [2] stood at 0% RFLP.

Turning to “ssPKHD1 CRISPR 65.1: CRISPR guide RNA (SEQ ID NO: 105) for R3229Q (human R3240Q) introgression into porcine PKHD1 (guide GGGGTCGAGTTGGTATATTGTGG; chemistry not given here)”, in the series with porcine PKHD1 [1], the “activity among the TALENs and CRISPR gRNAs tested for the target” value is “greatest activity”; the “cutting … at 30°” value is recorded as “Cutting detected, too”; the “RFLP … at 30°” value came to 7.3% RFLP; the “cutting … at 37°” value is “Cutting detected, too”. Besides, the “RFLP … at 37°” value in the series with porcine PKHD1 [1] is listed as 11% RFLP. Further, the “NHEJ n (%)” value in the series on porcine PKHD1 [2] (C1 (100/50/50) ng/μl) is 2 (10.5%). Besides, the “NHEJ n (%)” value with porcine PKHD1 [2] (C3 (25/12.5/50) ng/μl) was 4 (15.0%). Moreover, the “RFLP In Embryos” value in the series with porcine PKHD1 [2] came to 89%.
